Experimental data taken from ChEMBL document CHEMBL5046296 (J Med Chem, 2022).
Values after ≈ are worked out from the molar mass of the structure shown.

How the values were obtained:
[1] = Ratio of drug concentration in spinal cord to plasma in CCI induced thermal hyperalgesia Sprague-Dawley rat model at 0.3 mg/kg, po measured at 5.75 hrs post dose; format: ADME, organism-based
[2] = Ratio of drug concentration in spinal cord to plasma in CCI induced thermal hyperalgesia Sprague-Dawley rat model at 0.1 mg/kg, po measured at 5.75 hrs post dose; format: ADME, organism-based
[3] = Metabolic stability in human liver microsomes assessed as half life; format: ADME, Microsome
[4] = molecular target: T1, AP2-associated protein kinase 1 (Homo sapiens, UniProt Q2M2I8); test: Inhibition of GST-Xa tagged human AAK1 (30 to 330 residues) expresssed in bacteria using (5-FAM)-Aha-KEEQSQITSQVTGQIGWR-NH2 peptide as substrate incubated for 3 hrs in presence of ATP by electrophoretic analysis
[5] = molecular target: T1, AP2-associated protein kinase 1; test: Inhibition of […] in HEK293F cells assessed as reduction in phospho mu2 formation incubated for 3 hrs by Western blot analysis; format: cell-based
Cytochrome P450 3A4 [6] = molecular target: T2, Cytochrome P450 3A4 (Homo sapiens, UniProt P08684); test: Inhibition of CYP3A4 (unknown origin) using BFC as substrate; format: ADME
[7] = Metabolic stability in rat liver microsomes assessed as CYP450-mediated metabolism by measuring parent compound remaining at 0.5 uM incubated for 10 mins in presence of NADPH by LC-MS/MS analysis; format: ADME; settings: read-out: Stability
[8] = Protein binding in rat plasma assessed as unbound fraction at 10 uM measured after 5 hrs by LC-MS/MS analysis; format: ADME, cell-free
[9] = Permeability across basolateral to apical side in human Caco-2 cells at 3 uM measured after 2 hrs by LC-MS/MS analysis; format: ADME, cell-based; settings: read-out: permeability
Aorta = test: Cardiotoxicity in rat aortic ring assessed as relaxation of phenylephrine induced aortic ring contraction at 10 uM incubated for 1 hr; format: toxicity, tissue-based; design: scale not given: the % may be the effect or the level left
Rattus norvegicus [10] = test: Analgesic activity in streptozotocin induced diabetic peripheral neuropathic mechanical allodynia in overnight fasted Sprague-Dawley rat model assessed as reduction in pain response at 1 mg/kg, po measured after 5.5 hrs post treatment; format: functional; design: scale not given: the % may be the effect or the level left
[11] = Protein binding in dog plasma assessed as unbound fraction at 10 uM incubated for 5 hrs by LC-MS/MS analysis; format: ADME, cell-free, Canis lupus familiaris
[12] = Metabolic stability in rat liver microsomes assessed as half life; format: ADME, Microsome
[13] = Metabolic stability in mouse liver microsomes assessed as half life; format: ADME, Microsome
Cytochrome P450 3A4 [14] = molecular target: T2, Cytochrome P450 3A4; test: Time dependent inhibition of CYP3A4 (unknown origin) using BSF as substrate measured at 5 mins; format: ADME
[15] = molecular target: Solute carrier organic anion transporter family member 1B1 (Homo sapiens, UniProt Q9Y6L6); test: Inhibition of OATP1B1 (unknown origin)
Bile salt export pump = Bile salt export pump (Homo sapiens, UniProt O95342); test: Inhibition of BSEP (unknown origin)
Homo sapiens = species: Homo sapiens; test: Inhibition of sodium channel (unknown origin) at 10 uM at 4 Hz electrophysiological method relative to control
[16] = molecular target: Sodium-dependent noradrenaline transporter (Homo sapiens, UniProt P23975); test: Inhibition of NET (unknown origin); format: toxicity
Rattus norvegicus [17] = test: Analgesic activity in CCI induced thermal hyperalgesia in Sprague-Dawley rat assessed as reversal of thermal hyperalgesia by measuring reduction in paw withdrawal latency at 1 mg/kg, po measured after 5.5 hrs by Hargreaves test relative to control; format: functional; design: scale not given: the % may be the effect or the level left
Rattus norvegicus [18] = test: Analgesic activity in CCI induced thermal hyperalgesia in Sprague-Dawley rat assessed as reversal of thermal hyperalgesia by measuring reduction in paw withdrawal latency at 0.3 mg/kg, po measured after 5.5 hrs by Hargreaves test relative to control; format: functional; design: scale not given: the % may be the effect or the level left
Rattus norvegicus [19] = test: Analgesic activity in streptozotocin induced diabetic peripheral neuropathic mechanical allodynia in overnight fasted Sprague-Dawley rat model assessed as reduction in pain response at 3 mg/kg, po measured after 5.5 hrs post treatment; format: functional; design: scale not given: the % may be the effect or the level left
Rattus norvegicus [20] = test: Analgesic activity in CCI induced thermal hyperalgesia Sprague-Dawley rat model assessed as efficacy at 0.1 mg/kg, po measured at 5.75 hrs post dose; format: functional
[21] = Drug uptake in Spinal cord of CCI induced thermal hyperalgesia Sprague-Dawley rat model assessed as spinal occupancy at 0.3 mg/kg, po measured at 5.75 hrs post dose in presence of [3H]BMT-046091; format: ADME, organism-based; settings: in vivo
[22] = Cmax in overnight fasted Sprague-Dawley rat plasma with streptozotocin induced diabetic peripheral neuropathic mechanical allodynia at 1 mg/kg, po measured at 5.5 hrs post dose; format: ADME, organism-based; design: route oral, time 5.5 hrs, dose 1 mg/kg
[23] = Drug concentration in overnight fasted Sprague-Dawley rat spinal cord with streptozotocin induced diabetic peripheral neuropathic mechanical allodynia at 0.3 mg/kg, po measured at 5.5 hrs post dose; format: ADME, organism-based; settings: read-out: Ct
[24] = Drug concentration in overnight fasted Sprague-Dawley rat spinal cord with streptozotocin induced diabetic peripheral neuropathic mechanical allodynia at 3 mg/kg, po measured at 5.5 hrs post dose; format: ADME, organism-based; settings: read-out: Ct
[25] = Ratio of drug concentration in spinal cord to plasma of overnight fasted Sprague-Dawley rat model with streptozotocin induced diabetic peripheral neuropathic mechanical allodynia at 1 mg/kg, po measured at 5.5 hrs post dose; format: ADME, organism-based
Rattus norvegicus [26] = test: Analgesic activity in streptozotocin induced diabetic peripheral neuropathic mechanical allodynia in overnight fasted Sprague-Dawley rat model assessed as efficacy at 0.1 mg/kg, po measured at 5.5 hrs post dose; format: functional
Rattus norvegicus [27] = test: Analgesic activity in streptozotocin induced diabetic peripheral neuropathic mechanical allodynia in overnight fasted Sprague-Dawley rat model assessed as efficacy at 0.3 mg/kg, po measured at 5.5 hrs post dose; format: functional
[28] = Toxicity in naive Sprague-Dawley rat assessed as motor impairment at 3 to 30 mg/kg, po measured after 5 hrs by rotarod test; format: organism-based; settings: in vivo, dose 3-30 mg/kg
[29] = Cmax in dog at 3 mg/kg, po; format: ADME, organism-based, Canis lupus familiaris; design: route oral, dose 3 mg/kg; settings: in vivo
[30] = AUC (infinity) in mouse at 3 mg/kg, po; format: ADME, organism-based; design: time infinity, route oral, dose 3 mg/kg; settings: in vivo
[31] = AUC (infinity) in rat at 2 mg/kg, iv; format: ADME, organism-based; design: time infinity, route intravenous, dose 2 mg/kg; settings: in vivo
[32] = AUC (infinity) in dog at 2 mg/kg, iv; format: ADME, organism-based, Canis lupus familiaris; design: time infinity, route intravenous, dose 2 mg/kg; settings: in vivo
[33] = Apparent elimination half life in mouse at 2 mg/kg, iv; format: ADME, organism-based; settings: in vivo, read-out: betat1/2(app) (converted)
[34] = MRT in mouse at 2 mg/kg, iv; format: ADME, organism-based; settings: in vivo
[35] = Clearance in rat at 2 mg/kg, iv; format: ADME, organism-based; settings: in vivo
[36] = Volume of distribution at steady state in monkey at 2 mg/kg, iv; format: ADME, organism-based, Macaca mulatta; settings: rhesus monkey, in vivo, read-out: Vdss
[37] = Oral bioavailability in mouse at 3 mg/kg; format: ADME, organism-based; settings: in vivo
[38] = Oral bioavailability in rat at 3 mg/kg; format: ADME, organism-based; settings: in vivo
[39] = molecular target: BMP-2-inducible protein kinase (Homo sapiens, UniProt Q9NSY1); test: Inhibition of BIKE (unknown origin)
[40] = molecular target: Cyclin-G-associated kinase (Homo sapiens, UniProt O14976); test: Inhibition of GAK (unknown origin)
[41] = Solubility of the compound in acetate at pH 4.6 using crystalline form of sample; format: physicochemical
[42] = Solubility of the compound at pH 6.5 using crystalline form of sample; format: physicochemical
[43] = Solubility of the compound in FeSSIF; format: physicochemical
[44] = Solubility of the compound in ethanol; format: physicochemical

T2 sequence (P08684 whole entry): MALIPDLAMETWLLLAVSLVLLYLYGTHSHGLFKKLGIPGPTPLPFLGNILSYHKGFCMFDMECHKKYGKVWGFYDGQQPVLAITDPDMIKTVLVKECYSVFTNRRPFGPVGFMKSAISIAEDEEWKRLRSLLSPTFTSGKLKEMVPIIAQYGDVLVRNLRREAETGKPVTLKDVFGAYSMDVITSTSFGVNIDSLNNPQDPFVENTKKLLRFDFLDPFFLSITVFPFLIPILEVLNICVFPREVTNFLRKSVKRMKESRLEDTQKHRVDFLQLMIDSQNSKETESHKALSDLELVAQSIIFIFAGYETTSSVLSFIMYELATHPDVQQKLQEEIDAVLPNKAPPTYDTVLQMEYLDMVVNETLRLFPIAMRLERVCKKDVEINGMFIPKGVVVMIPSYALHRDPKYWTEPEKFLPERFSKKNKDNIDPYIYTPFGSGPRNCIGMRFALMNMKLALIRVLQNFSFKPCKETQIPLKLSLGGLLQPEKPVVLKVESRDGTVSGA
T1 sequence (Q2M2I8 whole entry, the tested form may be a part): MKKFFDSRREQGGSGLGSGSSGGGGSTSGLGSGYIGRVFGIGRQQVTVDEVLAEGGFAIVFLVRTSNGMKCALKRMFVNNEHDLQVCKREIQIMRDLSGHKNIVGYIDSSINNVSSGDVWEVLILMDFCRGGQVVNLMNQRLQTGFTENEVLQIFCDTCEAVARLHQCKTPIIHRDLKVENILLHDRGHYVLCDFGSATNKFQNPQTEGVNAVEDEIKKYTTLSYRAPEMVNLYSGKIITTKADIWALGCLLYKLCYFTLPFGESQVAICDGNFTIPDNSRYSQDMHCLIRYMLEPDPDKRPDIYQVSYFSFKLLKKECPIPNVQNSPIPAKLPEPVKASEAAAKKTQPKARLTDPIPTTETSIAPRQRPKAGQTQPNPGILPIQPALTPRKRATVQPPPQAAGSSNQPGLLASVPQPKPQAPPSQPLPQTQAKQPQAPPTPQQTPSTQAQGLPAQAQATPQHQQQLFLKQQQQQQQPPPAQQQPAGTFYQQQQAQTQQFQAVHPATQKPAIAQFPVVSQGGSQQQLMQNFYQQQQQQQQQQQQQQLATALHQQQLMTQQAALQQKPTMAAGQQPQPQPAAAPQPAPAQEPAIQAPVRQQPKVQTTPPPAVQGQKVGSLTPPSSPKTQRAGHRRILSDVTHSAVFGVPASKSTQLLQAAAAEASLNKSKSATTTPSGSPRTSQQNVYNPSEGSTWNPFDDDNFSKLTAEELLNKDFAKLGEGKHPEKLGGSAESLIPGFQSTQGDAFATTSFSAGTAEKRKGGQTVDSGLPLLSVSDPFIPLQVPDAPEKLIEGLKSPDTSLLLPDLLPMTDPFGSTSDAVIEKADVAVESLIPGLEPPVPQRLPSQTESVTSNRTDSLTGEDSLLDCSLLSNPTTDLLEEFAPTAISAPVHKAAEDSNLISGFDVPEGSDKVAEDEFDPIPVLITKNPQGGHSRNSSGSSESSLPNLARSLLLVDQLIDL
Sequence of Solute carrier organic anion transporter family member 1B1 (Q9Y6L6 whole entry): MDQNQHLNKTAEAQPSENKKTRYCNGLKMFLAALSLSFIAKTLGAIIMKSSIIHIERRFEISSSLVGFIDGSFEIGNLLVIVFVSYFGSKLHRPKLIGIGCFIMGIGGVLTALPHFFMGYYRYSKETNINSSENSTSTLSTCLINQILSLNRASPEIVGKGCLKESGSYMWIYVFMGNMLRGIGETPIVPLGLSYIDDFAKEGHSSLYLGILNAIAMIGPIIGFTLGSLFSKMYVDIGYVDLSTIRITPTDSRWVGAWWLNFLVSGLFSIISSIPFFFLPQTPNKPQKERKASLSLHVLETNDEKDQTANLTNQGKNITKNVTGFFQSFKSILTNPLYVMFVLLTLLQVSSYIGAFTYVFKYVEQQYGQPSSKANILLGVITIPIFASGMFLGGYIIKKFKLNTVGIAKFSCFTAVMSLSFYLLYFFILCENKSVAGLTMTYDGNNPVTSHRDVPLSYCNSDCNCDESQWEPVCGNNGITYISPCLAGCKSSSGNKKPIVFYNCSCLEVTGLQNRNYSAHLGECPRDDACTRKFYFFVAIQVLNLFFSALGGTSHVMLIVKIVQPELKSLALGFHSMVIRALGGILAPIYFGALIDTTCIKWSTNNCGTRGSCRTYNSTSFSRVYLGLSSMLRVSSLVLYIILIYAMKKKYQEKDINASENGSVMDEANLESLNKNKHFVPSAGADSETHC
Sequence of BMP-2-inducible protein kinase (Q9NSY1 whole entry): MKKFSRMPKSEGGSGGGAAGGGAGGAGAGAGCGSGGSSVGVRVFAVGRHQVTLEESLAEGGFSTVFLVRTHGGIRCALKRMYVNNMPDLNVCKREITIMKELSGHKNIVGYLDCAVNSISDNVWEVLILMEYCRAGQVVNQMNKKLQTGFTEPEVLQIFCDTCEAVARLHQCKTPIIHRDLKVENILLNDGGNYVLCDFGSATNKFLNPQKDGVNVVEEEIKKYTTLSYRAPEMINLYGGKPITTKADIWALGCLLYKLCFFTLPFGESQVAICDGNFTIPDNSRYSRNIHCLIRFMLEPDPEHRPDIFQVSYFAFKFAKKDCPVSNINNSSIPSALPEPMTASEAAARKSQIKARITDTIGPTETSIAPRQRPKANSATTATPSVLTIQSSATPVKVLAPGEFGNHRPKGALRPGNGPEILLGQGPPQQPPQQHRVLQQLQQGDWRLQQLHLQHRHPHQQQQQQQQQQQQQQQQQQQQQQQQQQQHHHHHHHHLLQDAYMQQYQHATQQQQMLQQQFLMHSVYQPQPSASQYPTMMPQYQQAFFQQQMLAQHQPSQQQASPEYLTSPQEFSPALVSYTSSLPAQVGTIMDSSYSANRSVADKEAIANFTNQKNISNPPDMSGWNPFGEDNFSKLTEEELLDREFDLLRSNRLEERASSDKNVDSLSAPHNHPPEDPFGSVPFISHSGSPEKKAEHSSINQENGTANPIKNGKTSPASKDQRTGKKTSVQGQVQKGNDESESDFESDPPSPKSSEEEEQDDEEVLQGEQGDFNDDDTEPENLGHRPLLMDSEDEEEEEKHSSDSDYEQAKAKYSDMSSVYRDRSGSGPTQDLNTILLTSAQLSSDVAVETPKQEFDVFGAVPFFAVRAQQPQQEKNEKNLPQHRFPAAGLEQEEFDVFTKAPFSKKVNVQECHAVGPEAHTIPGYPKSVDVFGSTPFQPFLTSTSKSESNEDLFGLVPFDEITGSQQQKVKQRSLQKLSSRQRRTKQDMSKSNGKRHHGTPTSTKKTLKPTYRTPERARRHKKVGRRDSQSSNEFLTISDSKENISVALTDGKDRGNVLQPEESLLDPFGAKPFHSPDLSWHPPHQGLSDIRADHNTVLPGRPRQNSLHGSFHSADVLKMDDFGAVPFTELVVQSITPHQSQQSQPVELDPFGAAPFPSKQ
Sequence of Bile salt export pump (O95342 whole entry): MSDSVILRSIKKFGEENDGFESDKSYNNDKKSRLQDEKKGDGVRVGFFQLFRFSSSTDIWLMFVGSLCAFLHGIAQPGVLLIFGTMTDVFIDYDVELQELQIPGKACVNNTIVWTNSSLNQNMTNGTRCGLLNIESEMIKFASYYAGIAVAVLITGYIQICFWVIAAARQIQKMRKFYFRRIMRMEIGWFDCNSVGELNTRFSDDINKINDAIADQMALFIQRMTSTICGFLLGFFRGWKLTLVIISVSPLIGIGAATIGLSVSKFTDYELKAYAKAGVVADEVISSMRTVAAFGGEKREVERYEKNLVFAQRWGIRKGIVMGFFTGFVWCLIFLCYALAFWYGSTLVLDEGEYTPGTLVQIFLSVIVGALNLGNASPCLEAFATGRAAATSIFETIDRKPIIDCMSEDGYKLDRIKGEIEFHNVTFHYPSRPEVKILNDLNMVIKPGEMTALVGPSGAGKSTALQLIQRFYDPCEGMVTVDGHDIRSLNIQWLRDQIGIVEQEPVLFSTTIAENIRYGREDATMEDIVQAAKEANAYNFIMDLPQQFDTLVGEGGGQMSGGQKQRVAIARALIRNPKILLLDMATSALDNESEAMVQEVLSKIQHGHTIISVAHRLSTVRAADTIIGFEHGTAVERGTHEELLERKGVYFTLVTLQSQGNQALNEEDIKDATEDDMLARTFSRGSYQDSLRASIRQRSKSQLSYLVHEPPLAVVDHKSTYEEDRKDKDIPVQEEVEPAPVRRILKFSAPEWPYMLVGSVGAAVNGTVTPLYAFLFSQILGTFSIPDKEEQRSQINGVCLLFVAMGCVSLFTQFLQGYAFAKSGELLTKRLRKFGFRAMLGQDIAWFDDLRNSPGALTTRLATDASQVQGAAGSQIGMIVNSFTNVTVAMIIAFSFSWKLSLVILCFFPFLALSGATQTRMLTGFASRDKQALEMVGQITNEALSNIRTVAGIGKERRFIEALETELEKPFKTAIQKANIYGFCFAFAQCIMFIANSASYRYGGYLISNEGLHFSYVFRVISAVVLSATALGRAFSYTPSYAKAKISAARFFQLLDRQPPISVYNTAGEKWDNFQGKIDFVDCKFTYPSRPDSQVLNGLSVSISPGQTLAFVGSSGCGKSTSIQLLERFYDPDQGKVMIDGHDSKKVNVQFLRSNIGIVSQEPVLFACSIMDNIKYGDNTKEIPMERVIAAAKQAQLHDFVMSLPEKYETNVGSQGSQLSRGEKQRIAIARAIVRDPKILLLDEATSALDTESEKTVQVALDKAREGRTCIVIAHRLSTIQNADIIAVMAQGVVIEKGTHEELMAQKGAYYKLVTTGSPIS

Q: What does the source list for `CC(C)C[C@](C)(N)COc1ccc(-c2ccnc(C(F)F)c2)nc1C(F)F` [PILAVAPADIN]?
A: Kp at 5.75 h [1]: 23; Kp at 5.75 h [2]: 43; half-life [3]: > 2 h; IC50 [4]: 2 nM; IC50 [5]: 2 nM; IC50 (Cytochrome P450 3A4 [6]): > 20000 nM; remaining at 10 min, 0.5 µM [7]: 92%; fraction unbound at 5 h, 10 µM [8]: 0.1; Papp B→A at 2 h, 3 µM [9]: 13.8 ×10⁻⁶ cm/s; Activity (Aorta): 42%; Activity (Rattus norvegicus [10]): >60%; fraction unbound at 5 h, 10 µM [11]: 0.04; half-life [12]: > 2 h; half-life [13]: > 2 h; IC50 (Cytochrome P450 3A4 [14]): > 20000 nM; IC50 [15]: > 30000 nM; IC50 (Bile salt export pump): > 30000 nM; inhibition (Homo sapiens): 61%; IC50 [16]: 390 nM; Activity (Rattus norvegicus [17]): 97%; Activity (Rattus norvegicus [18]): 25%; Activity (Rattus norvegicus [19]): 60%; Efficacy (Rattus norvegicus [20]): 25%; Occ [21]: 83%; Cmax [22]: 92 nM; concentration at 5.5 h [23]: 206 nM; concentration at 5.5 h [24]: 2370 nM; Kp at 5.5 h [25]: 9; Efficacy (Rattus norvegicus [26]): 20%; Efficacy (Rattus norvegicus [27]): 20%; Activity [28]: Non-Toxic; Cmax [29]: 200 ng/mL; AUC(0-inf) [30]: 5780 ng·h/mL; AUC(0-inf) [31]: 1180 ng·h/mL; AUC(0-inf) [32]: 1210 ng·h/mL; half-life [33]: 44.2 h; MRT [34]: 63.8 h; clearance [35]: 28.5 mL/min/kg; Vd [36]: 20.6 L/kg; bioavailability [37]: 100%; bioavailability [38]: 50%; IC50 [39]: 1900 nM; IC50 [40]: 800 nM; solubility thermodynamic [41]: > 10000 µg/mL; solubility thermodynamic [42]: 440 µg/mL (≈ 1140 µM); solubility [43]: 840 µg/mL (≈ 2180 µM); solubility [44]: > 50000 µg/mL
